Experimental data: ChEMBL document CHEMBL4507276 (2021)

Tests used:
[1] = molecular target: Serine/threonine-protein kinase VRK2 (Homo sapiens) (UniProt Q86Y07); conditions: Compound concentration 1000.0 nM
[2] = molecular target: NT-3 growth factor receptor (Homo sapiens) (UniProt Q16288); conditions: Compound concentration 1000.0 nM
[3] = molecular target: Serine/threonine-protein kinase PLK1 (Homo sapiens) (UniProt P53350); assay: PLK1 Invitrogen selectivity data (BI); conditions: Compound concentration 3.0 uM
Serine/threonine-protein kinase PLK1 (Homo sapiens), sequence (P53350 whole entry): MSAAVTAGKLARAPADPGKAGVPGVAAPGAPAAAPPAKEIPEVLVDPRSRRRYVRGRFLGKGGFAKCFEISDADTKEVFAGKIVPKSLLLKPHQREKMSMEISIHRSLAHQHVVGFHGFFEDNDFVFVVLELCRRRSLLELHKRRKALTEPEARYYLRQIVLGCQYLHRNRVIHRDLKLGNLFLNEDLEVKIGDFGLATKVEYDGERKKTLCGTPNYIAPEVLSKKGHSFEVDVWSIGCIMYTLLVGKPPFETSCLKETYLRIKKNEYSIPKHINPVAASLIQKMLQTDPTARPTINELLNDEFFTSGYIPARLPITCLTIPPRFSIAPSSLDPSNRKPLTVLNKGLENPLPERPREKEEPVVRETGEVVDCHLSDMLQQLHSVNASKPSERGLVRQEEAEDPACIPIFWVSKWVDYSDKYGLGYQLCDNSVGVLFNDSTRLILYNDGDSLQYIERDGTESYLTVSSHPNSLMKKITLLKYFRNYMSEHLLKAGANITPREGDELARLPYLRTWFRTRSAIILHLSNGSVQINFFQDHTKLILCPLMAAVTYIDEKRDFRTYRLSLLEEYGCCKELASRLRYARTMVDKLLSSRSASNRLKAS

[4] = molecular target: T1, G protein-coupled receptor kinase 3 (Homo sapiens) (UniProt P35626); assay: ADRBK2 Invitrogen selectivity data (BI); conditions: Compound concentration 3.0 uM
T1 sequence (whole entry): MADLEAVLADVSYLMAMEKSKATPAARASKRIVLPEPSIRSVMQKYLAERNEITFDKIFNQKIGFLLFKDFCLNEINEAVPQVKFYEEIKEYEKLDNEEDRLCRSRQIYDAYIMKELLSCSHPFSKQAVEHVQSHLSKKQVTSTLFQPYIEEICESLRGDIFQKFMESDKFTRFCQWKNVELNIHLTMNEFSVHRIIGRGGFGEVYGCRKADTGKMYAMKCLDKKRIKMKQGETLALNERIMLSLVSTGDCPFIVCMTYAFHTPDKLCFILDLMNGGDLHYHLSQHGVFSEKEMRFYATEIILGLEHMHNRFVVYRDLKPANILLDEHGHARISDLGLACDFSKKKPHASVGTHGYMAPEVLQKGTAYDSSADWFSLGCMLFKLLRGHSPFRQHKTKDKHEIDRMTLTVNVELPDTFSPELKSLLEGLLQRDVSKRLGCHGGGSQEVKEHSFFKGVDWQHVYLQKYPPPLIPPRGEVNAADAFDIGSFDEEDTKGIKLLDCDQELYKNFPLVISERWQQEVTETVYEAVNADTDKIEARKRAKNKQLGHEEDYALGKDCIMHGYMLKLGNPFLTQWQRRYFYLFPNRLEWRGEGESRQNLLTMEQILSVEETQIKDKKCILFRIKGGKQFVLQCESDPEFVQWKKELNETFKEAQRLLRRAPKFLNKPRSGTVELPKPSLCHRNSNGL

[5] = molecular target: T2, Alpha-2A adrenergic receptor (Homo sapiens) (UniProt P08913); assay: ALPHA2A/H Eurofins-Panlabs selectivity data (BI); conditions: Compound concentration 10.0 uM
T2 sequence (whole entry): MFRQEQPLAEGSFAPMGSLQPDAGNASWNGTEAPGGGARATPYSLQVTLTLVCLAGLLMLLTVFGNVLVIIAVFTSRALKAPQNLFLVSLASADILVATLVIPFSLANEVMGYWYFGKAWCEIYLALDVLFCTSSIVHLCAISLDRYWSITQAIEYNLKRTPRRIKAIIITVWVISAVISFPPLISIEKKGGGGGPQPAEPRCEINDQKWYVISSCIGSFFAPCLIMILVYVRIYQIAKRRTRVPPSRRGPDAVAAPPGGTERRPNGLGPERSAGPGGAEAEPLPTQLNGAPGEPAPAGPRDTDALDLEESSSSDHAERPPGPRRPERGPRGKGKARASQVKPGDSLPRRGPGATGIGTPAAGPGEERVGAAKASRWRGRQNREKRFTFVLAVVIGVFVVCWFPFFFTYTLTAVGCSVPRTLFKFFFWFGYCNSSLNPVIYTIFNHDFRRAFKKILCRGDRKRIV

[6] = molecular target: Adenosine receptor A2a (Homo sapiens) (UniProt P29274); assay: A2A/HU Eurofins-Panlabs selectivity data (BI); conditions: Compound concentration 10.0 uM
[7] = molecular target: Cholecystokinin receptor type A (Homo sapiens) (UniProt P32238); assay: CCKA/H Cerep selectivity data (BI); conditions: Compound concentration 20.0 uM
Cholecystokinin receptor type A (Homo sapiens), sequence (P32238 whole entry): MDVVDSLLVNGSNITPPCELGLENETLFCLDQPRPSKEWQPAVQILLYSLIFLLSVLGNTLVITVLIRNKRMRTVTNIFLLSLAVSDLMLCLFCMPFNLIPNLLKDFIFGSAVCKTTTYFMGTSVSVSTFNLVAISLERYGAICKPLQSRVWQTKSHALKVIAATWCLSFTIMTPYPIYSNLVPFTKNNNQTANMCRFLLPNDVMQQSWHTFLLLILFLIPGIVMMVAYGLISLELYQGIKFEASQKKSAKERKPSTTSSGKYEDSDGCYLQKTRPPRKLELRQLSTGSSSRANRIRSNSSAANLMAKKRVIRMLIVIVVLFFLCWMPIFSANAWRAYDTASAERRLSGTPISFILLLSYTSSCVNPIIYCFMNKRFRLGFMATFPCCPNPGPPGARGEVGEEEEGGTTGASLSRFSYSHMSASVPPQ

[8] = molecular target: Insulin-like growth factor 1 receptor (Homo sapiens) (UniProt P08069); assay: IGF1R Invitrogen selectivity data (BI); conditions: Compound concentration 3.0 uM
Insulin-like growth factor 1 receptor (Homo sapiens), sequence (P08069 31-736 limits assumed): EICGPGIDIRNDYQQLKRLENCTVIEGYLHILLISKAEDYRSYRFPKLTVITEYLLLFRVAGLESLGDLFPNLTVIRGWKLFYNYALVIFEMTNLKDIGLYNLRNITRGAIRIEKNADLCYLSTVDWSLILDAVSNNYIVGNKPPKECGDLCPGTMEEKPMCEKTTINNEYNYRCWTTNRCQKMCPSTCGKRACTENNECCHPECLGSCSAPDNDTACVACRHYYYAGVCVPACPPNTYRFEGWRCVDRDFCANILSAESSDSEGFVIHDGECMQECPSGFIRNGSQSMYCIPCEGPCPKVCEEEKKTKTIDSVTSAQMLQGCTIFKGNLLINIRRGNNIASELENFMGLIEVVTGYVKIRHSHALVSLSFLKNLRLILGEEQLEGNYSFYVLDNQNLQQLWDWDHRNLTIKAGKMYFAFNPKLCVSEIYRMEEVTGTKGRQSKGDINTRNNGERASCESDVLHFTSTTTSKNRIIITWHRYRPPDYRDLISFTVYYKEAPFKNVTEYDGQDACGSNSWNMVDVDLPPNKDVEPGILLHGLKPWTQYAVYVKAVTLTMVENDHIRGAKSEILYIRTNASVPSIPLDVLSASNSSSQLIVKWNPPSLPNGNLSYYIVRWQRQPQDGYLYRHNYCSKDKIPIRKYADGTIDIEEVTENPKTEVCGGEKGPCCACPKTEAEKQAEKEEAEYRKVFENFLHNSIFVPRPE
Insulin-like growth factor 1 receptor (Homo sapiens), sequence (P08069 741-1367 limits assumed): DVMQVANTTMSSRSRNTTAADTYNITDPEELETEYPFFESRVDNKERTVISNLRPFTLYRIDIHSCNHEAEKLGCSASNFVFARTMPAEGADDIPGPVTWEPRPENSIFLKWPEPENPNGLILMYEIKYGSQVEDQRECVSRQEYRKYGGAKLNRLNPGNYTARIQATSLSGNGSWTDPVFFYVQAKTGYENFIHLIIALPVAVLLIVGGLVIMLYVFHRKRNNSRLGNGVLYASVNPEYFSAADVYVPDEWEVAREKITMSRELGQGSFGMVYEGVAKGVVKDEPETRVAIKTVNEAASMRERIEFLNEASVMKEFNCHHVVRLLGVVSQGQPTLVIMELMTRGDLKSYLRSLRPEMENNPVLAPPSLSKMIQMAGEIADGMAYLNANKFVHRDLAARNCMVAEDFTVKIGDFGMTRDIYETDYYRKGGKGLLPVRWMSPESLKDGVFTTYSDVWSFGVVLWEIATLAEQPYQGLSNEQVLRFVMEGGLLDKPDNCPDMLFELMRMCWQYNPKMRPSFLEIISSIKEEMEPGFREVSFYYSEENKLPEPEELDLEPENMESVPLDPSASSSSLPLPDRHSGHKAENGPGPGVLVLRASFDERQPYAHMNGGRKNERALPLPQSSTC

[9] = molecular target: Phosphorylase b kinase gamma catalytic chain, liver/testis isoform (Homo sapiens) (UniProt P15735); assay: PHKG2 Invitrogen selectivity data (BI); conditions: Compound concentration 3.0 uM
[10] = molecular target: Mitogen-activated protein kinase 14 (Homo sapiens) (UniProt Q16539); assay: P38ALPHA_CE Cerep selectivity data (BI); conditions: Compound concentration 20.0 uM
Mitogen-activated protein kinase 14 (Homo sapiens), sequence (Q16539 whole entry): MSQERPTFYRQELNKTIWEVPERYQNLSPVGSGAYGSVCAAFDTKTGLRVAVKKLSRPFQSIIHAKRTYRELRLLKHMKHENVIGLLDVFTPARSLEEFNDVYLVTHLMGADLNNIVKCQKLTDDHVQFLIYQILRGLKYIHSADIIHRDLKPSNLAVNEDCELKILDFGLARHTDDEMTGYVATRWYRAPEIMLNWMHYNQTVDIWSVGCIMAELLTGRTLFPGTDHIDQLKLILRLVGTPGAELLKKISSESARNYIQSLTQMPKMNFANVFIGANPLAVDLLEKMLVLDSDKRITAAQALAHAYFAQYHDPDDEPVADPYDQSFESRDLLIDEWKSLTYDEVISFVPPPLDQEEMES

[11] = molecular target: Beta-3 adrenergic receptor (Homo sapiens) (UniProt P13945); assay: BETA3/HU Cerep selectivity data (BI); conditions: filed as antagonist, Compound concentration 20.0 uM
[12] = molecular target: 5-hydroxytryptamine receptor 2B (Homo sapiens) (UniProt P41595); conditions: Compound concentration 10.0 uM
5-hydroxytryptamine receptor 2B (Homo sapiens), sequence (P41595 whole entry): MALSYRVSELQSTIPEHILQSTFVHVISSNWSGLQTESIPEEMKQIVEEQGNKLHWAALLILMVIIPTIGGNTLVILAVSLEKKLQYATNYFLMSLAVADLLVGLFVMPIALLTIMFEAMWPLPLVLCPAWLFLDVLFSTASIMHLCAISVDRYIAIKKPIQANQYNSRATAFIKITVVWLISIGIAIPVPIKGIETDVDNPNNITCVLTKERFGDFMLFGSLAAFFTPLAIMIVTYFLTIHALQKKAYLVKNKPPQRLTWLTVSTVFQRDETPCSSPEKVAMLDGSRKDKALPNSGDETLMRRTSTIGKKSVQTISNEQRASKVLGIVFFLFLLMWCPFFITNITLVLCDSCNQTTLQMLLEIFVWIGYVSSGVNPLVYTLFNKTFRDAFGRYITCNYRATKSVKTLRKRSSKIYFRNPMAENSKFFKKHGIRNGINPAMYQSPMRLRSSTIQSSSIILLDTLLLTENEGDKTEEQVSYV

[13] = molecular target: T3, Serine/threonine-protein kinase Sgk1 (Homo sapiens) (UniProt O00141); assay: SGK Invitrogen selectivity data (BI); conditions: Compound concentration 3.0 uM
T3 sequence (whole entry): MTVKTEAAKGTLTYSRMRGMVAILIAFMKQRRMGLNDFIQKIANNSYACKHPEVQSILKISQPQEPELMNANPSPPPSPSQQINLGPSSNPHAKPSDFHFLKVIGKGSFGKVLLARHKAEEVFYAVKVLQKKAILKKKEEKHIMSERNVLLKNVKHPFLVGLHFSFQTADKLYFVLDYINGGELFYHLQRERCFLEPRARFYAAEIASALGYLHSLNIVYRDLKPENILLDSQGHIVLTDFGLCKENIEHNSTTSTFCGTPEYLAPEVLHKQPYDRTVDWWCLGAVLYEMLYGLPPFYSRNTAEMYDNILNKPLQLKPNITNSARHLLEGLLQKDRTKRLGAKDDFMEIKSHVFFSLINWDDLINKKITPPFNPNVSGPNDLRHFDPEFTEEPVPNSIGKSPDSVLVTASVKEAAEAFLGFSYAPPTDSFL

[14] = molecular target: RAC-beta serine/threonine-protein kinase (Homo sapiens) (UniProt P31751); assay: AKT2 Invitrogen selectivity data (BI); conditions: Compound concentration 3.0 uM
RAC-beta serine/threonine-protein kinase (Homo sapiens), sequence (P31751 whole entry): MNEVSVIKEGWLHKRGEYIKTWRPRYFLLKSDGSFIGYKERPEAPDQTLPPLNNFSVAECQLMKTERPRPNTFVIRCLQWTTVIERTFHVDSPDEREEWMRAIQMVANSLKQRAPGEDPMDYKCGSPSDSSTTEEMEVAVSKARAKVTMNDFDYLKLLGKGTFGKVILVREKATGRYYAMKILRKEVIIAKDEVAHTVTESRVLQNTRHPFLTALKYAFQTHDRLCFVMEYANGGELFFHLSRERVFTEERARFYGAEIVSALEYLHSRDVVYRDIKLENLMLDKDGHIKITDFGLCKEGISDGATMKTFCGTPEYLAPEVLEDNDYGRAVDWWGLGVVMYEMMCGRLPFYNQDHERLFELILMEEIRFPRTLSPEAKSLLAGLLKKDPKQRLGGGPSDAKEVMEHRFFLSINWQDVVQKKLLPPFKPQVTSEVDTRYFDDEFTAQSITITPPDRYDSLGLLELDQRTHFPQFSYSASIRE

[15] = molecular target: SRSF protein kinase 3 (Homo sapiens) (UniProt Q9UPE1); assay: STK23 Invitrogen selectivity data (BI); conditions: Compound concentration 3.0 uM
SRSF protein kinase 3 (Homo sapiens), sequence (Q9UPE1 whole entry): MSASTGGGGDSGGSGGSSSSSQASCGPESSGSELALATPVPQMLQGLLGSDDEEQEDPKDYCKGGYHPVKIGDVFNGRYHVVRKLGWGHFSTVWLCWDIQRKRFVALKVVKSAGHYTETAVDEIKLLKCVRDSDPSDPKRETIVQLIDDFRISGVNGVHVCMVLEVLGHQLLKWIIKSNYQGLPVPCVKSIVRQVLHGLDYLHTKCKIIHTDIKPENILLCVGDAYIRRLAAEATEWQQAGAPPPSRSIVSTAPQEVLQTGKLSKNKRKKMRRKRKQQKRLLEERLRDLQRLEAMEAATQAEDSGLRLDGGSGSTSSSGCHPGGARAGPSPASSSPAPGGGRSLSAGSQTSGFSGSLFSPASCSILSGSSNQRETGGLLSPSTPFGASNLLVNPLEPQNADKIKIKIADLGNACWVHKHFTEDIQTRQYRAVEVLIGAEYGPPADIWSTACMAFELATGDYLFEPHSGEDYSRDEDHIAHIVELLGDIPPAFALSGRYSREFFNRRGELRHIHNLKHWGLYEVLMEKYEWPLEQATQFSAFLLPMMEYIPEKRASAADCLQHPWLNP

[16] = tested on: Fibroblast growth factor receptor 3 (Homo sapiens), P22607 [K650E]; assay: FGFR3 K650E Invitrogen selectivity data (BI); conditions: Compound concentration 3.0 uM
[17] = molecular target: Kappa-type opioid receptor (Homo sapiens) (UniProt P41145); assay: KAPPA/HU Eurofins-Panlabs selectivity data (BI); conditions: Compound concentration 10.0 uM
Kappa-type opioid receptor (Homo sapiens), sequence (P41145 whole entry): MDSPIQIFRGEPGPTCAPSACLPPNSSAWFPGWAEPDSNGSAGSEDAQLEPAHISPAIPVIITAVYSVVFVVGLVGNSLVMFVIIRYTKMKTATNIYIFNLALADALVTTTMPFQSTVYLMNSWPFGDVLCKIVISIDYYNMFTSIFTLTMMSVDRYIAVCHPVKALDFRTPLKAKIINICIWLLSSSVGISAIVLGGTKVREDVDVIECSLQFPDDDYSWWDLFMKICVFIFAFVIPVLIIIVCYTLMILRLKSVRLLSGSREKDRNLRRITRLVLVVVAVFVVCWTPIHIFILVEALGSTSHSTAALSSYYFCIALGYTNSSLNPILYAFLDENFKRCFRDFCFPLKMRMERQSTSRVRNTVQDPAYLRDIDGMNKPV

CN(C)C(=O)Cn1cc(-c2nc(C3(c4ccc(-c5cnc(N)nc5)cc4)CC3)no2)cn1 [BI 0153]
inactive: residual activity [1] 90% | residual activity [2] 97%

CN(C)C(=O)Cn1cc(-c2nc([C@@](C)(c3ccc(-c4cnc(N)nc4)cc3)C3CC3)no2)cn1 [BI 665915]
inactive: residual activity [3] 97% | residual activity [4] 100% | residual activity [5] 105% | residual activity [6] 105% | residual activity [7] 113% | residual activity [8] 99.5% | residual activity [9] 97.5% | residual activity [10] 113% | residual activity [11] 86% | inhibition [12] -5.4% | residual activity [13] 99% | residual activity [14] 98% | residual activity [15] 96.5% | residual activity [16] 91% | residual activity [17] 102%
